Results published in patent US20180214395A1 (priority 2017, published 2018).
“And” between values parts separate entries of the source, which are not always exact repeats. Equal values may be shown once. Where a name gives a salt, the structure may show the parent alone.

Tests used:
[1] = target: T1, serotonin transporter (SERT or 5-HT) (Rattus norvegicus, UniProt P31652); assay: biochemical
[2] = target: T2, norepinephrine transporter (NET) (Rattus norvegicus, UniProt Q63380); assay: Norepinephrine uptake assay; format: biochemical; settings: for norepinephrine uptake, % inhibition: 1.0E−05 M
T2 construct: tissue Eurofins Cerep; host or cells: rat hypothalamus synaptosomes (own knowledge of the vendor's assay)

[3] = target: T1, serotonin transporter (SERT or 5-HT)
[4] = target: T3, PCP (antagonist radioligand) (Rattus norvegicus, UniProt P35439); assay: Binding assay PCP (antagonist radioligand); settings: Study 2; Hill coefficient
T3 construct: PCP; rat cerebral; [^3H]TCP; tissue Eurofins Cerep; host or cells: rat cerebral cortex

[5] = Novelty-suppressed feeding test (NSFT); format: in vivo; settings: rat, 72 hr after single dose
[6] = target: NMDA (antagonist radioligand); assay: Binding assay NMDA (antagonist radioligand); settings: Study 1; reference compound
μ (MOP) (h) = μ (MOP) (h) (Homo sapiens, UniProt P35372)
opioid receptors = settings: cited from earlier work
[7] = mouse hot plate test; cited from earlier work
Forced swim test = format: in vivo, rat
[8] = Locomotor activity assessment (distance traveled, rearing); format: in vivo, rat
[9] = Female urine sniffing test (FUST); format: in vivo; settings: rat; 24 hr after single dose; ketamine 10 mg/kg ip, d-methadone 20 mg/kg sc
[10] = 10 mg/kg, single administration 24 hours prior, 60 counts per subject
[11] = Vehicle minus treatment, 10 mg/kg
[12] = 10 mg/kg, 24 hours prior to testing
[13] = rat, 24 h after dosing, one-way ANOVA

T2 sequence (Q63380 1-617): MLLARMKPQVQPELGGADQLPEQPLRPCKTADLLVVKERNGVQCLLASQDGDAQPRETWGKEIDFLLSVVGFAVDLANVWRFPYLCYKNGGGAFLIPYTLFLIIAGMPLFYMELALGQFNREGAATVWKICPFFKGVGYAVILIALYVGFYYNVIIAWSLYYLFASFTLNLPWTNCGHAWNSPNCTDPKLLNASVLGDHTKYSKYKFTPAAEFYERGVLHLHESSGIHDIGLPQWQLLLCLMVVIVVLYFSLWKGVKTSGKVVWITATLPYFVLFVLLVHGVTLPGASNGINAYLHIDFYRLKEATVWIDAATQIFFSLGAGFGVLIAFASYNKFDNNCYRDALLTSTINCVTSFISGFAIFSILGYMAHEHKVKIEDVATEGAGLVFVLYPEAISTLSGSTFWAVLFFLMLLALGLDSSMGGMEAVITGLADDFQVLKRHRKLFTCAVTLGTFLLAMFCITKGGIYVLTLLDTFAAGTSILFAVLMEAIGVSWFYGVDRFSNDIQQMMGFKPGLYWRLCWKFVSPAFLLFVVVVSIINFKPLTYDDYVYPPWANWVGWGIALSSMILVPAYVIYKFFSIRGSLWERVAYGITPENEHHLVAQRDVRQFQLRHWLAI
T1 sequence (P31652 whole entry): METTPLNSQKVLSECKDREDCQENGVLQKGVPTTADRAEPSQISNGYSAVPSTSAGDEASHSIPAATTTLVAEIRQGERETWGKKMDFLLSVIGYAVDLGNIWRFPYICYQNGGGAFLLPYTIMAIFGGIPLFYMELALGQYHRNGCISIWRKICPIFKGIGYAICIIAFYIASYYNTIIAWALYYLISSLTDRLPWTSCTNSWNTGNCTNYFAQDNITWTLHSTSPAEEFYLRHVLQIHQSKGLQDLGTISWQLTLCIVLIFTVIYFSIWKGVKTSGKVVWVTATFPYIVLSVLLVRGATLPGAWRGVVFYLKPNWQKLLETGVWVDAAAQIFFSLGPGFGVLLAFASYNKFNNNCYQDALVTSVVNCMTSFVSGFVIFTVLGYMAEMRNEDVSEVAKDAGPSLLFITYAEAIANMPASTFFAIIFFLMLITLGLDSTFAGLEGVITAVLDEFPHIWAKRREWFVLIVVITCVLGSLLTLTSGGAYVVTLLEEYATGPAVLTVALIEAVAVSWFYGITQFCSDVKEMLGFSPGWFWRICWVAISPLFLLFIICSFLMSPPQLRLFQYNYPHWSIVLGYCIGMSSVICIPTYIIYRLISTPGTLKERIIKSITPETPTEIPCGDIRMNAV
μ (MOP) (h), sequence (P35372 whole entry): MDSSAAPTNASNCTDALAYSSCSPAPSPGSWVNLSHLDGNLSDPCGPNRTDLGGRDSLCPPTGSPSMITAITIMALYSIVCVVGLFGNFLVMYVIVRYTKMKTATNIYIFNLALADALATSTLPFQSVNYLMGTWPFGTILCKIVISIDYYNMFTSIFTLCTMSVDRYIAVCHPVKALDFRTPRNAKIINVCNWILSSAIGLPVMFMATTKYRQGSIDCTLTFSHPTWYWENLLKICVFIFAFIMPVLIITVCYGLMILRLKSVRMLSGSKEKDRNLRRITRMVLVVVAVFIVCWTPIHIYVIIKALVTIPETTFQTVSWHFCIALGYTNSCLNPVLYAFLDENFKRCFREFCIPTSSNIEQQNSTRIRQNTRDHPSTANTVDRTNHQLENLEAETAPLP

[2H]C([2H])([2H])CC(=O)C(C[C@H](C)N(C([2H])([2H])[2H])C([2H])([2H])[2H])(c1ccccc1)c1ccccc1
IC50 [1]: 1100 nM
IC50 [2]: 7200 nM
norepinephrine uptake, % inhibition [2]: 61.4%
inhibition [3]: 90.5%
nH [4]: 0.8

CCC(=O)C(CC(C)N(C)C)(c1ccccc1)c1ccccc1 (racemic) [methadone]
NSFT: latency to feed in the home cage [5]: neither ketamine or methadone influenced

O=C(O)[C@@H]1C[C@H](CP(=O)(O)O)CCN1 [CGS 19755]
IC50 [6]: 1300 nM
Ki [6]: 1100 nM

C[C@@H](NC(=O)[C@@H](N)Cc1ccc(O)cc1)C(=O)NCC(=O)N(C)[C@@H](Cc1ccccc1)C(=O)NCCO [DAMGO]
nH (μ (MOP) (h)): 0.9 and 0.8 and 0.7 and 1.0 and 0.6

C[C@]12N[C@H](Cc3ccccc31)c1ccccc12 [MK 801]
nH [4]: 0.9 and 1.1

CC[C@@H](c1cccc(O)c1)[C@@H](C)CN(C)C [TapentadolHydrochloride]
inhibition [3]: 91.1% and 87.2% and 89.1%

CCC(=O)C(c1ccccc1)(c1ccccc1)C(C)CN(C)C (stereo not drawn) [d-isomethadone]
Potency, times less potent than l-isomethadone (opioid receptors): 50 times

C[C@H](CN1CCOCC1)C(C(=O)N1CCCC1)(c1ccccc1)c1ccccc1 [d-moramide]
Potency, times more potent than l-moramide [7]: 700 times

CNC1(c2ccccc2Cl)CCCCC1=O (centres unmarked) [ketamine, reference compound]
Climbing, Mean frequency (Forced swim test; [10]): 7.600
Immobility, Mean frequency (Forced swim test; [10]): 34.100
Swimming, Mean frequency (Forced swim test; [10]): 18.300
Climbing, Mean Diff. (Fisher's PLSD) (Forced swim test; [11]): −3.822
Immobility, Mean Diff. (Fisher's PLSD) (Forced swim test; [11]): 14.900
Swimming, Mean Diff. (Fisher's PLSD) (Forced swim test; [11]): −11.078
Forced swim test: frequency of immobility vs vehicle (Forced swim test; rat, 24 h after single dose, d-methadone 10, 20 and 40 mg/kg SC, ketamine 10 mg/kg IP): significantly decreased
Forced swim test: frequency of swimming vs vehicle (Forced swim test; rat, d-methadone 10, 20 and 40 mg/kg SC, ketamine 10 mg/kg IP): significantly increased
Distance traveled min 1-5, Mean [8, 12]: 586.333
Rearing min 1-5, Mean [8, 12]: 20.500
Total Distance Traveled, Mean [8, 12]: 2464.333 cm/60 min
Total Rearing, Mean ([8]; 10 mg/kg, 24 hours prior to testing, 60 minute test): 85.000
Locomotor activity: total distance traveled (60 min) [8, 13]: no significant effect
Locomotor activity: total rearing frequency (60 min) [8, 13]: no significant effect
NSFT: latency to feed in the home cage [5]: neither ketamine or methadone influenced
NSFT: latency to eat in a novel open field ([5]; ketamine 10 mg/kg ip, d-methadone 20 mg/kg sc): significantly decreases
FUST: time sniffing water [9]: no effect
FUST: time spent sniffing female urine vs vehicle [9]: increases

CC[C@@H](c1cccc(O)c1)[C@@H](C)CN(C)C [tapentadol hydrochloride, reference compound]
IC50 [1]: 850 nM
IC50 [2]: 260 nM
norepinephrine uptake, % inhibition [2]: 94.1%
inhibition [3]: 89.1%
